Here are results for four molecules from US5061794A, “Cephalosporin derivatives, and antibacterial agents” (priority 1986, dated 1991).

≈ marks a conversion by molar mass, not a printed value. Read-outs that look alike come from different tables or passages of the source.

The subject of assay [1] is Ps. aeruginosa AK 109. Kind of assay: in vitro antibacterial activity, agar plate dilution method (MIC). It is filed as cell-based, Pseudomonas aeruginosa. As to conditions: for MIC: Pseudomonas aeruginosa, AK109, 16 h, read-out: Minimum Inhibitory Concentration (MIC). In short, it runs like this: (§1)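 Plate dilution on Mueller Hinton agar with various antibiotic concentrations. Inoculum size was 10^6 CFU/ml, incubation 16 hours at 37° C.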

Assay [2] has as its system Ps. aeruginosa IF03445. Described as above. The class given is cell-based, Pseudomonas aeruginosa. As to conditions: 10^6 CFU/ml; for Minimum Inhibitory Concentration (MIC): Ps. aeruginosa IF03445; for MIC: Pseudomonas aeruginosa, IF03445, 16 h, read-out: Minimum Inhibitory Concentration (MIC), Ps. aeruginosa IF03445. In short, it runs like this: as §1
The subject of assay [3] is Ps. aeruginosa AKR17. The description is as above. The class given is cell-based, Pseudomonas aeruginosa. The note with it: for MIC: Pseudomonas aeruginosa, read-out: Minimum Inhibitory Concentration (MIC). The essentials: as §1
In assay [4] the test system is Ps. cepacia 23. Described as above. The class given is cell-based, Pseudomonas cepacia. The note with it: Ps. cepacia 23, 10^6 CFU/ml; for MIC: Burkholderia cepacia, 16 h, read-out: Minimum Inhibitory Concentration (MIC). In short, it runs like this: as §1
In assay [5] the test system is K. pneumoniae No. 42. The assay is described as above. It is filed as cell-based. As to conditions: 10^6 CFU/ml; for Minimum Inhibitory Concentration (MIC): *K. pneumoniae No. 42, lactamase-producing strain; for MIC: Klebsiella pneumoniae, NO.42, 16 h, read-out: Minimum Inhibitory Concentration (MIC), *K. pneumoniae No. 42, lactamase-producing strain. The essentials:
as §1

In assay [6] the test system is P. vulgaris HX-19. The description is as above. It is filed as cell-based. As to conditions: P. vulgaris HX-19, 10^6 CFU/ml; for MIC: Proteus vulgaris, HX19, 16 h, read-out: Minimum Inhibitory Concentration (MIC). The essentials: as §1
Assay [7] concerns P. vulgaris No. 33. Described as above. It is filed as cell-based. The note with it: 10^6 CFU/ml; for Minimum Inhibitory Concentration (MIC): *P. vulgaris No. 33, lactamase-producing strain; for MIC: Proteus vulgaris, NO.33, 16 h, read-out: Minimum Inhibitory Concentration (MIC), *P. vulgaris No. 33, lactamase-producing strain. In short, it runs like this: as §1
Assay [8] deals with E. coli GN5482. The description is as above. The class given is cell-based. As to conditions: for MIC: Escherichia coli, GN5482, 16 h, read-out: Minimum Inhibitory Concentration (MIC). In short, it runs like this:
as §1

Assay [9] has as its system S. marcescens IAM 1184. The description is as above. It is filed as cell-based. As to conditions: Serratia marcescens, IAM1184, 16 h, read-out: Minimum Inhibitory Concentration (MIC). In short, it runs like this:
as §1

Assay [10] has as its system E. coli NIHJ JC2. The description is as above. The class given is cell-based. As to conditions: for MIC: Escherichia coli, NIHJJC2, 16 h, read-out: Minimum Inhibitory Concentration (MIC), E. coli NIHJ JC2, 10^6 CFU/ml, 37° C. The essentials:
as §1

Assay [11] has as its system K. oxytoca GN10650. Described as above. It is filed as cell-based. As to conditions: 10^6 CFU/ml; for Minimum Inhibitory Concentration (MIC): *K. oxytoca GN10650, lactamase-producing strain; for MIC: Klebsiella oxytoca, GN10650, 16 h, read-out: Minimum Inhibitory Concentration (MIC), *K. oxytoca GN10650, lactamase-producing strain. In short, it runs like this:
as §1

For assay [12], the system named is M. morganii GN5407. Described as above. It is filed as cell-based. As to conditions: 10^6 CFU/ml; for Minimum Inhibitory Concentration (MIC): *M. morganii GN5407, lactamase-producing strain; for MIC: Morganella morganii, GN5407, 16 h, read-out: Minimum Inhibitory Concentration (MIC), *M. morganii GN5407, lactamase-producing strain. In short, it runs like this:
as §1

Assay [13] relates to E. cloacae Nek 39. The description is as above. The class given is cell-based. As to conditions: 10^6 CFU/ml; for Minimum Inhibitory Concentration (MIC): *E. cloacae Nek 39, lactamase-producing strain; for MIC: Enterobacter cloacae, NEK39, 16 h, read-out: Minimum Inhibitory Concentration (MIC), *E. cloacae Nek 39, lactamase-producing strain. In short, it runs like this: as §1

For assay [14], the system named is S. aureus 209P NIHJ-JC1. The assay is described as above. It is filed as cell-based. As to conditions: for MIC: Staphylococcus aureus, 16 h. The essentials: as §1
For assay [15], the system named is E. cloacae 963. The description is as above. It is filed as cell-based. As to conditions: 10^6 CFU/ml. In short, it runs like this:
as §1

The test system of assay [16] is S. marcescens No. 16-2. The description is as above. It is filed as cell-based. As to conditions: for MIC: Serratia marcescens, NO.162, 16 h. The essentials:
as §1

In assay [17] the test system is K. pneumoniae PCI-602. The description is as above. The class given is cell-based. As to conditions: Klebsiella pneumoniae, PCI602, 16 h, 10^6 CFU/ml. In short, it runs like this:
as §1

The subject of assay [18] is A. calcoaceticus No. 4. The assay is described as above. As to conditions: 10^6 CFU/ml; for Minimum Inhibitory Concentration (MIC): A. calcoaceticus No. 4; for MIC: Acinetobacter calcoaceticus, NO.4, 16 h, read-out: Minimum Inhibitory Concentration (MIC), A. calcoaceticus No. 4. It is filed as cell-based, Acinetobacter calcoaceticus. The essentials: as §1
Assay [19] concerns E. coli CSH(RE45). Kind of assay: microbe, parasite or virus in culture. The note with it: 10^6 CFU/ml; for Minimum Inhibitory Concentration (MIC): *E. coli CSH(RE45), lactamase-producing strain; for MIC: Escherichia coli, 16 h, read-out: Minimum Inhibitory Concentration (MIC), *E. coli CSH(RE45), lactamase-producing strain. The class given is cell-based. The essentials:
as §1

Assay [20] deals with E. coli CSH2 (RK1). Kind of assay: microbe, parasite or virus in culture. It is filed as cell-based. The note with it: 10^6 CFU/ml; for Minimum Inhibitory Concentration (MIC): *E. coli CSH2 (RK1), lactamase-producing strain; for MIC: Escherichia coli, 16 h, read-out: Minimum Inhibitory Concentration (MIC), *E. coli CSH2 (RK1), lactamase-producing strain. In short, it runs like this: as §1

[21] abbreviates: S. marcescens IAM 1184, 10^6 CFU/ml.
[22] abbreviates: read-out: Minimum Inhibitory Concentration (MIC), K. pneumoniae PCI-602.
Setting [23] is: read-out: Minimum Inhibitory Concentration (MIC).
Where [24] appears, read: 16 h, Ps. aeruginosa AKR17, 10^6 CFU/ml.
The mark [25] stands for this setting: Enterobacter cloacae, 16 h, E. cloacae 963, read-out: Minimum Inhibitory Concentration (MIC).
The mark [26] stands for this setting: read-out: Minimum Inhibitory Concentration (MIC), *S. marcescens No. 16-2, lactamase-producing strain, 10^6 CFU/ml.

In the case of `CC(=O)Oc1ccc(-c2nc(SCC3=C(C(=O)O)N4C(=O)C(NC(=O)C(=NOC(C(=O)O)c5ccccc5)c5csc(N)n5)C4SC3)sc2CC(=O)O)cc1OC(C)=O` (single isomer, unassigned) [Example 61 DA], the MIC is 0.39 µg/mL (≈ 0.442 µM) in [1]; 0.39 µg/mL (≈ 0.442 µM) in [3] (AKR17, 16 h); less than 0.006 µg/mL in assay [4]; 0.39 µg/mL (≈ 0.442 µM) in [8]; 0.05 µg/mL (≈ 0.0566 µM) in assay [9] (setting [21]); 25 µg/mL (≈ 28.3 µM) in assay [14] (S. aureus 209P NIHJ-JC1, 10^6 CFU/ml, 37° C., 16 hours, read-out: Minimum Inhibitory Concentration (MIC)). The MIC in assay [15] (Enterobacter cloacae, 963, 16 h, read-out: Minimum Inhibitory Concentration (MIC), E. cloacae 963) was 0.39 µg/mL (≈ 0.442 µM); in [17] (setting [22]), less than 0.006 µg/mL. In addition, the “Minimum Inhibitory Concentration (MIC)” value in [2] was 0.39 µg/mL; in [5], 0.1 µg/mL; in assay [6], less than 0.006 µg/mL; in assay [7], 0.025 µg/mL; in assay [10] (E. coli NIHJ JC2, 10^6 CFU/ml, 37° C., 16 hours) it was 0.78 µg/mL; in assay [11], 0.05 µg/mL. In addition, the “Minimum Inhibitory Concentration (MIC)” value in assay [12] was 0.05 µg/mL; in [13], 0.1 µg/mL; in [16] (*S. marcescens No. 16-2, lactamase-producing strain, 10^6 CFU/ml), 0.78 µg/mL; in [18], 0.1 µg/mL; in assay [19], 3.12 µg/mL; in assay [20], 0.0125 µg/mL.
As for `CC(=O)Oc1ccc(-c2nc(SCC3=C(C(=O)O)N4C(=O)C(NC(=O)C(=NOC(C(=O)O)c5ccccc5)c5csc(N)n5)C4SC3)sc2CC(=O)O)cc1OC(C)=O` (single isomer, unassigned) [Example 61 DB], the “Minimum Inhibitory Concentration (MIC)” value in assay [1] (Ps. aeruginosa AK 109, 10^6 CFU/ml) is 1.56 µg/mL; in assay [2] it was 3.12 µg/mL; in assay [3] (Ps. aeruginosa AKR17, 10^6 CFU/ml), 0.78 µg/mL; in [4], less than 0.006 µg/mL; in assay [5] it was 0.39 µg/mL; in [6], 0.05 µg/mL. The “Minimum Inhibitory Concentration (MIC)” value is 0.2 µg/mL in [7]; 1.56 µg/mL in [8] (*E. coli GN5482, lactamase-producing strain, 10^6 CFU/ml); 0.2 µg/mL in assay [11]; 0.39 µg/mL in assay [12]; 0.39 µg/mL in assay [13]; 50 µg/mL in assay [14] (S. aureus 209P NIHJ-JC1, 10^6 CFU/ml, 37° C., 16 hours). Also, the “Minimum Inhibitory Concentration (MIC)” value in [15] (E. cloacae 963) was 0.78 µg/mL; in assay [18], 0.39 µg/mL; in [19], 12.5 µg/mL; in [20], 0.05 µg/mL. The MIC in assay [9] stood at 0.39 µg/mL (≈ 0.442 µM); in [10], 3.12 µg/mL (≈ 3.53 µM); in assay [16] (setting [23]) it was 3.12 µg/mL (≈ 3.53 µM); in assay [17] (K. pneumoniae PCI-602, read-out: Minimum Inhibitory Concentration (MIC)) it was 0.025 µg/mL (≈ 0.0283 µM).
For the molecule `CO/N=C(\C(=O)N[C@@H]1C(=O)N2C(C(=O)O)=C(CSc3nnc(-c4ccc(O)c(O)c4)o3)CS[C@H]12)c1csc(N)n1` [Ex. 1, sodium 7β-[2-(2-aminothiazol-4-yl)-2-methoxyiminoacetamido]-3-[5-(3, 4dihydroxyphenyl)-1,3,4-oxadiazol-2-yl]thiomethyl-3-cephem-4-carboxylate], the MIC in [1] was 0.39 µg/mL; in assay [2] it was 0.78 µg/mL; in assay [3] (setting [24]), more than 100 µg/mL; in [4], 0.1 µg/mL; in [5], 0.025 µg/mL; in assay [6], less than 0.006 µg/mL. Moreover, the MIC was 0.0125 µg/mL in assay [7]; 0.39 µg/mL in assay [8]; less than 0.006 µg/mL in assay [9] (setting [21]); 0.05 µg/mL in [10]; 0.39 µg/mL in [11]; 0.0125 µg/mL in assay [12]. Further, the MIC is 0.05 µg/mL in assay [13]; 1.56 µg/mL in [14] (read-out: Minimum Inhibitory Concentration (MIC), S. aureus 209P NIHJ-JC1, 10^6 CFU/ml, 37° C., 16 hours); less than 0.006 µg/mL in assay [15] (setting [25]); 0.78 µg/mL in assay [16] (setting [26]); less than 0.006 µg/mL in [17] (setting [22]); 0.1 µg/mL in assay [18]. The MIC was 0.78 µg/mL in [19] and less than 0.006 µg/mL in assay [20].
As for `CO/N=C(\C(=O)N[C@@H]1C(=O)N2C(C(=O)O)=C(CSc3nnc(-c4ccc(OC(C)=O)c(OC(C)=O)c4)o3)CS[C@H]12)c1csc(N)n1` [Ex. 4, sodium 3-[5-(3,4-diacetoxyphenyl)-1,3,4-oxadiazol-2-yl]thiomethyl-7β-[2-(2-thiazol-4-yl)-2-methoxyiminoacetamido]-3-cephem-4carboxylate], the MIC is 0.39 µg/mL in [1]; 0.78 µg/mL in assay [2]; more than 100 µg/mL in assay [3] (setting [24]); 0.1 µg/mL in assay [4]; 0.025 µg/mL in assay [5]; less than 0.006 µg/mL in [6]. For the same molecule, the MIC in [7] is 0.0125 µg/mL; in [8], 0.39 µg/mL; in [9] (setting [21]), less than 0.006 µg/mL; in assay [10], 0.05 µg/mL; in assay [11] it was 0.39 µg/mL; in [12], 0.0125 µg/mL. For the same molecule, the MIC in [13] is 0.05 µg/mL; in assay [14] (setting [23]), 3.12 µg/mL; in assay [15] (setting [25]) it was less than 0.006 µg/mL; in assay [16] (setting [26]) it was 1.56 µg/mL; in assay [17] (setting [22]) it was less than 0.006 µg/mL; in [18] it was 0.1 µg/mL. Further, the MIC was 0.78 µg/mL in assay [19] and less than 0.006 µg/mL in assay [20].
